From patent publication US11465995B2, “Crystal and salt forms of tricyclic compound and preparation process thereof” (SHIJIAZHUANG SAGACITY NEW DRUG DEVELOPMENT COMPANY, LTD., priority 2018, dated 2022)
pEC50: −log10 of the molar value. Several values for one entry are separate records, joined by “and”; a condition that tells them apart may be missing. Equal values may be shown once.

Key:
[1] = Pharmacokinetic evaluation in SD rats; type: in vivo; conditions: Sprague Dawley, rat, plasma, 3 mg/kg, male, intravenous injection and oral administration, Ozanimod at 3 mpk
Method: This Example is provided to test pharmacokinetics of compounds in SD rats.
Materials: Sprague Dawley rats (male, 200-300 g, 7-9 weeks, Shanghai SLAC)
Procedures: The rodent pharmacokinetic characteristics of the compound after intravenous injection and oral administration were tested according to standard protocol. In the test, the candidate compound was formulated as a clear solution, and the rats were given a single intravenous injection and oral administration. The intravenous and oral vehicles were a hydroxypropyl β cyclodextrin aqueous solution in a certain proportion or normal saline solution. The whole blood sample within 24 h was collected, centrifuged at 3000 g for 15 min, and the supernatant was separated to give the plasma sample. 4 volumes of acetonitrile solution containing internal standard was added to precipitate protein and after centrifugation the supernatant was collected and added with equal volume of water. After further centrifugation, the supernatant was used for injection. Quantitative analysis of blood drug concentration was done by LC-MS/MS analysis method and pharmacokinetic parameters were calculated, such as Cmax, Tmax, clearance, half-life, area under the curve of drug concentration-time, bioavailability, etc.

[2] = system: blood lymphocytes; experiment: Effects of single oral administration on blood lymphocytes in rats; type: in vivo, SD rats; conditions: for Percentage of lymphocytes in white blood cells in a unit volume of blood (%) / Rate of change of lymphocytes in blood after administration (%): mean ± SEM
Method: Normal SPF grade male SD rats were administered by single oral gavage. The experiment contained five groups: the vehicle control group, the reference compound Ozanimod group, Compound 1-0.3 mg/kg dose group, Compound 1-1.0 mg/kg dose group, Compound 1-3 mg/kg dose group. Blood was collected 0.5 h before administration and 4, 8, 24 h after administration, and anticoagulated with 10% K2-EDTA. The anticoagulated blood sample was placed in 4° C. environment, diluted 1:4 with normal saline, and quickly tested with a hematology analyzer to calculate the number of lymphocytes per liter of blood and the percentage in the total white blood cells. Graphpad prism 6.0 software was used to calculate the mean±standard error, and the two-way ANOVA test was used to test the significance of the difference. When p<0.05, there was a significant difference between two groups.

[3] = biological target: T1, S1P1 receptor (Homo sapiens, UniProt P21453); experiment: S1P1 receptor agonistic activity test (PathHunter cell line); type: cell-based; conditions: agonist mode
T1 construct: expressed in transfected cells
Method: I. Cells Treatment • 1. PathHunter cell line was thawed according to standard procedures. • 2. The cells were inoculated in 20 μl 384-well microplates and incubated at 37° C. for appropriate time.
II. Agonist • 1. For the agonist assay, the cells were incubated with the testing sample to induce the reaction. • 2. The stock solution had been diluted 5 times with the buffer. • 3. 5 μl of 5-fold dilution was added into the cells, which were incubated at 37° C. for 90-180 min with the vehicle concentration of 1%.
III. Signal Detection • 1. 12.5 μl or 15 μl of PathHunter detection reagent at a volume ratio of 50% was added in one portion, then incubation at room temperature was performed for 1 h to generate detection signal. • 2. The PerkinElmer Envision™ instrument was used to read the microplate for chemiluminescence signal detection.
IV. Data Analysis • 1. CBIS data analysis kit was used to analyze the activity of the compound. • 2. Calculation formula: % Activity=100%×(average RLU of testing sample−average RLU of vehicle)/(average RLU of maximum control ligand−average RLU of vehicle) The results were shown in Table 3.

[4] = system: TNBS-induced acute infectious bowel disease (IBD) model; experiment: Pharmacodynamic test on TNBS-induced acute infectious bowel disease (IBD) model in female SD rats; type: in vivo; design: Ulcer score / Inflammation score / Total injury score: scale not given here; conditions: for Injury area (cm^2) / Ulcer area (cm^2) / Inflammation score / Total injury score / Ulcer score: mean ± sem; for Inflammation score / Total injury score / Ulcer score: colon pathological test
Method: Female SD rats were divided into 7 groups, that is, model group, prednisolone-10 mg/kg group, Ozanimod-0.3 mg/kg group, Ozanimod-1.0 mg/kg group, Compound 1-0.1 mg/kg group, Compound 1-0.3 mg/kg group, Compound 1-0.6 mg/kg group. All animals were deeply anesthetized with pentobarbital sodium, and TNBS-50% alcohol solution was inserted into the intestinal cavity from the anus for modeling. The animal's anus was squeezed, and the animal was allowed to stand upside down for 5 min. The animals were returned to the cage after assured to be leak free.
The test compounds were administered orally 1 h after modeling, once a day for 7 days. The model group was given an equal volume of drug vehicle. The animals were weighed daily before administration of the test compound and were monitored for daily fecal traits and given clinical observation scores. The day after the last administration, all animals were euthanized. The colons were collected (anal to nodular part), the length and weight of the colons were measured, and the gross anatomical scores of the lesion sizes was taken. The gross anatomical images of the colon lesions were recorded, and the tissues were fixed in 10% neutral formalin solution and were subjected to histopathological analysis.

[5] = 0.1 mg/kg oral once a day for 7 days
[6] = 0.3 mg/kg oral once a day for 7 days
[7] = 0.6 mg/kg oral once a day for 7 days

T1 sequence (P21453 whole entry): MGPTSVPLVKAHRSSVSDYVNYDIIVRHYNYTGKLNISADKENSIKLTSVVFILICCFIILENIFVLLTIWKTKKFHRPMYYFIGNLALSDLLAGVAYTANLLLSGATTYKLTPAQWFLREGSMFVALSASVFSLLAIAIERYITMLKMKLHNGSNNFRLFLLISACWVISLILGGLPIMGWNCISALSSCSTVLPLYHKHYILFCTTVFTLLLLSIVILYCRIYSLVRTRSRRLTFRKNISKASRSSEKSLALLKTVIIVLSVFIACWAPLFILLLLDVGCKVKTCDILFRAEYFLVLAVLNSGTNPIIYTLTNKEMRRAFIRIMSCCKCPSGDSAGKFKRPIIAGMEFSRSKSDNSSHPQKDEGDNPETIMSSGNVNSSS

For `CC(C)Oc1ccc(-c2nc(-c3cccc4c3C[C@@H]3CC(=O)N(CCO)[C@H]43)no2)cc1C#N` (single isomer, unassigned) [Compound 1], the clearance [1] was 11.5 mL/min/kg, the bioavailability ([1]; read-out: Bioavailability F (%)) was 85.8% and the AUC ([1]; read-out: Concentration Integration AUC) was 6.83 µM·h. For the same molecule, the half-life ([1]; read-out: Half-life T1/2 (converted)) was 3.46 h, the “Percentage of lymphocytes in white blood cells in a unit volume of blood (%)” value (from here on “Percentage of lymphocytes … (%)”) ([2]; 0.3 mg/kg single oral, 4 h) was 52.08 ± 3.35^&&& % and the “Rate of change of lymphocytes in blood after administration (%)” value (“Rate of change of lymphocytes in blood … (%)” below) ([2]; 0.3 mg/kg single oral, 4 h, vs same group before administration) was −59.57 ± 2.01 %. The “maximum decreasing rate of the number of blood lymphocytes” value (from here on “maximum decreasing rate”) ([2]; 0.3 mg/kg single oral, 8 h) was 66.87%, the “Percentage of lymphocytes … (%)” value ([2]; 0.3 mg/kg single oral, 8 h) was 46.71 ± 3.72^*#&&&& % and the “Rate of change of lymphocytes in blood … (%)” value ([2]; 0.3 mg/kg single oral, 8 h) was −66.87 ± 1.97 %. The “blood lymphocyte decreasing rate” value ([2]; 0.3 mg/kg single oral, 24 h) was −44.98%, the “Percentage of lymphocytes … (%)” value ([2]; 0.3 mg/kg single oral, 24 h) was 63.86 ± 1.70% and the “Rate of change of lymphocytes in blood … (%)” value ([2]; 0.3 mg/kg single oral, 24 h) was 44.98 ± 16.62 %. For the same molecule, the “Percentage of lymphocytes … (%)” value ([2]; 0.3 mg/kg single oral, −0.5 h (before administration)) was 59.12 ± 2.19%, the “Percentage of lymphocytes … (%)” value ([2]; 1.0 mg/kg single oral, 4 h) was 36.82 ± 2.33^****$$$ % and the “Rate of change of lymphocytes in blood … (%)” value ([2]; 1.0 mg/kg single oral, 4 h) was −71.25 ± 1.93 %. For the same molecule, the “maximum decreasing rate” value ([2]; 1.0 mg/kg single oral, 8 h) was 83.09%, the “Percentage of lymphocytes … (%)” value ([2]; 1.0 mg/kg single oral, 8 h) was 29.89 ± 2.56^****$$$$ % and the “Rate of change of lymphocytes in blood … (%)” value ([2]; 1.0 mg/kg single oral, 8 h) was −83.09 ± 1.25 %. The “blood lymphocyte decreasing rate” value ([2]; 1.0 mg/kg single oral, 24 h) was 0.22%, the “Percentage of lymphocytes … (%)” value ([2]; 1.0 mg/kg single oral, 24 h) was 61.62 ± 1.61% and the “Rate of change of lymphocytes in blood … (%)” value ([2]; 1.0 mg/kg single oral, 24 h) was −0.22 ± 6.87^**#$$ %. For the same molecule, the “Percentage of lymphocytes … (%)” value ([2]; 1.0 mg/kg single oral, −0.5 h (before administration)) was 59.49 ± 1.01%, the “Percentage of lymphocytes … (%)” value ([2]; 3.0 mg/kg single oral, 4 h) was 34.03 ± 3.81^****#$$$$ % and the “Rate of change of lymphocytes in blood … (%)” value ([2]; 3.0 mg/kg single oral, 4 h) was −78.97 ± 0.91 %. For the same molecule, the “maximum decreasing rate” value ([2]; 3.0 mg/kg single oral, 8 h) was 85.92%, the “Percentage of lymphocytes … (%)” value ([2]; 3.0 mg/kg single oral, 8 h) was 26.19 ± 2.81^****$$$$ % and the “Rate of change of lymphocytes in blood … (%)” value ([2]; 3.0 mg/kg single oral, 8 h) was −85.92 ± 1.26 %. The “blood lymphocyte decreasing rate” value ([2]; 3.0 mg/kg single oral, 24 h) was 55.15%, the “Percentage of lymphocytes … (%)” value ([2]; 3.0 mg/kg single oral, 24 h) was 57.05 ± 2.49% and the “Rate of change of lymphocytes in blood … (%)” value ([2]; 3.0 mg/kg single oral, 24 h) was −55.15 ± 3.32^****$$$$& %. The “Percentage of lymphocytes … (%)” value ([2]; 3.0 mg/kg single oral, −0.5 h (before administration)) was 62.35 ± 2.26%, the pEC50 [3] was greater than 8.00 and the “Injury area (cm^2)” value [4, 5] was 6.09 ± 0.94 cm^2. For the same molecule, the “Ulcer area (cm^2)” value [4, 5] was 2.42 ± 0.66 cm^2, the “Injury area (cm^2)” value [4, 6] was 5.34 ± 0.90 cm^2 and the “Ulcer area (cm^2)” value [4, 6] was 2.18 ± 0.84 cm^2. For the same molecule, the “Injury area (cm^2)” value [4, 7] was 3.42 cm^2 and 3.42 ± 0.73* cm^2, the “Ulcer area (cm^2)” value [4, 7] was 0.94 ± 0.55 cm^2 and the “symptoms of colon ulcers and edema (dissection at the end of the experiment)” value ([4]; 0.6 mg/kg, compared to the model group) was “reduced compared to the model group”. It also gave an Inflammation score ([4]; 0.1 mg/kg) of 3.57 ± 0.20, a Total injury score ([4]; 0.1 mg/kg) of 6.14 ± 0.40 and a Ulcer score ([4]; 0.1 mg/kg) of 2.57 ± 0.20. It also gave an Inflammation score ([4]; 0.3 mg/kg) of 3.57 ± 0.37, a Total injury score ([4]; 0.3 mg/kg) of 6.14 ± 0.63 and a Ulcer score ([4]; 0.3 mg/kg) of 2.57 ± 0.30.
